Measured values as given in patent US4803272A (priority 1987, dated 1989).
Structures can show the parent of a compound that is named as a salt.

Tests used:
[1] = test system: vesicular stomatitis virus [VSV], New Jersey strain; format: cell-based; details: without interferon; Maden-Darby bovine kidney cells
[2] = test system: human gamma interferon; format: cell-based
[3] = target: T1, spermidine synthase (Homo sapiens, UniProt P19623); assay: Spermidine synthase inhibiting activity; format: biochemical; details: pH 8.2, 37°, 10 min, 20 μM decarboxylated S-adenosyl-L-methionine
T1 sequence (P19623 1-302): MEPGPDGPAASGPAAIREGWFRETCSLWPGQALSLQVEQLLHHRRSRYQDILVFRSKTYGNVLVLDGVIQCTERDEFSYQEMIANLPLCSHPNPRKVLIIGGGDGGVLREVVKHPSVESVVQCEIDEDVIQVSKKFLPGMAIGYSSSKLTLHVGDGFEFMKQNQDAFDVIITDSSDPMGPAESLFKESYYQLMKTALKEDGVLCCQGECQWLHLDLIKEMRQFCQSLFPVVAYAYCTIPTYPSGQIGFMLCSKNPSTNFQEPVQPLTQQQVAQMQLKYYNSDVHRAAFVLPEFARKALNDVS
Experimental: Reactions were initiated by the addition of enzyme and incubated for 10 minues at 37° . The reactions were stopped by the additions of 5 μL of 100 mM spermidine and 5 μL of a slurry of 160 mg/mL of Darco G60 in water. The mixtures were centrifuged at 10,000×g for 2 minutes and a 40 μL aliquot of the supernate counted. Blank reactions were run using zero incubation time, or omitting enzyme or putrescine.
This assay made use of the adsorption of unreacted substrate, decarboxylated S-adenosyl-L-methionine, on charcoal while leaving the product polyamine in solution.

[4] = test system: human beta interferon; format: cell-based
[5] = test system: human alpha [leucocyte] interferon; details: mdbk cells
[6] = test system: B16 melanoma cells; details: DFMO in combination with interferon; cited from earlier work

Structure (SMILES): NCCCCCC(CCN)SCCOCn1cnc2c(N)ncnc21 (stereo not shown) [Example 1, 9-[2-oxa-5-thia-6-(2-aminoethyl)-11-aminoundecyl]-6-aminopurine]
- antiviral activity of compound by itself against VSV [1]: no antiviral activity
- potentiation of human gamma interferon [2]: 4 ×
- IC50 [3]: ~100 µM
- potentiation of human beta interferon [4]: 16 ×
- potentiation of human alpha [leucocyte] interferon [5]: 2 ×
- potentiation of human alpha interferon [5]: 8 ×

Structure (SMILES): NCCC[C@](N)(C(=O)O)C(F)F [DFMO, α-difluoromethyl ornithine]
- suppression of tumor growth of B16 melanoma cells [6]: total or near total suppression

Structure (SMILES): NCCCCCC(CCN)SC[C@@H]1C[C@H](n2cnc3c(N)ncnc32)[C@@H](O)[C@H]1O (relative stereo) [Example 3, 1,t-(9-adenyl)-2,c-3,c-dihydroxy-4,t-[2-thia-3-(2-aminoethyl)-8-aminooctyl]cyclopentane hydrochloride]
- antiviral activity of compound by itself against VSV [1]: no antiviral activity
- IC50 [3]: 2 µM
- potentiation of human alpha interferon [5]: 2 ×
